Consider six compounds from patent US20040122106A1, “Tablets quickly disintegrating in oral cavity” (priority 2001, published 2004).

Values after ≈ are worked out from the molar mass of the structure shown. Where a name gives a salt, the structure may show the parent alone.

Usually solubility stands for the concentration that dissolves in the medium under given conditions.

The nature of one series: physchem. The following applies: 20 °C, water, thermodynamic from solid.
Description: The water solubility of the pharmacologically active ingredient was determined by the method described in the Japanese Pharmacopoeia, the General Rule 13, Paragraph 23.
In turn, `CN(C)C(=O)C(CCN1CCC(O)(c2ccc(Cl)cc2)CC1)(c1ccccc1)c1ccccc1` [loperamide hydrochloride] showed a solubility at 30 min of approximately 1 mg/mL.

The same series, now with this note: water, 20 °C, thermodynamic from solid.
Consider `O=c1[nH]c2ccccc2n1CCCN1CCC(n2c(=O)[nH]c3cc(Cl)ccc32)CC1` [domperidone], for which the solubility at 30 min was approximately 0.002 mg/mL (≈ 4.7 µM). `NC(N)=Nc1nc(CSCCC(N)=NS(N)(=O)=O)cs1` [famotidine] registered a solubility at 30 min of approximately 0.7 mg/mL (≈ 2070 µM). Consider `COc1ccc(OC)c(C(O)CNC(=O)CN)c1` (stereo not drawn) [midodrine hydrochloride], for which the solubility at 30 min is approximately 100 mg/mL.

As to `C[C@H](CS)C(=O)N1CCC[C@H]1C(=O)O` [captopril], the solubility at 30 min is approximately 60 mg/mL (≈ 276000 µM). Take `Nc1c(Br)cc(Br)cc1CN[C@H]1CC[C@H](O)CC1` [ambroxol hydrochloride]: the solubility at 30 min is approximately 20 mg/mL.
